Source: US20240262863A1, “PEPTIDE FRAGMENT AND USE THEREOF” (TOAGOSEI CO., LTD., priority 2021, published 2024)
FAM = 5(6)-carboxyfluorescein

System: HeLa cells
Test: Evaluation of cell membrane penetrating ability of FAM-labelled constructs by flow cytometry
Assay type: cell-based, human
Conditions: for MFI (mean fluorescent intensity): 10 μM in culture solution, 0.5% DMSO, 20 h incubation at 37° C., flow cytometer detector FL2; for MFI value compared to Example 2: 10 μM, 20 h incubation
Description: The cell membrane penetrating ability of samples 1 to 3 was evaluated using HeLa cells (an established cell line derived from human cervical cancer cells) as eukaryotic cells. […] In addition, “FAM” in Table 2 indicates the abovementioned fluorescent dye.
HeLa cells were cultured in DMEM (Dulbecco's modified Eagle's medium, manufactured by Fuji Film Wako Pure Chemical Industries, Cat. No. 043-30085) containing 10% FBS (fetal bovine serum), which is an ordinary culture medium.
HeLa cells adhering to the culture plate were washed with PBS, 0.25% trypsin/EDTA solution was added, and the cells were incubated for 3 min at 37° C. After incubation, the same DMEM medium including 10% FBS was added to deactivate the trypsin, and the cells were then precipitated by centrifugation for 5 min at 150×g. The supernatant produced by centrifugation was removed, and the same DMEM including 10% FBS was added to the precipitate (cell pellet) to prepare an approximately 1×10^5 cells/mL cell suspension. A total of 2 mL of the cell suspension was added to the wells of a commercial 6-hole (well) plate (AGC Techno Glass Co., Ltd) to seed the cells (at approximately 2×10^5 cells/well). Subsequent culturing for 3 h at 37° C. under conditions of 5% CO2 caused the cells to adhere to the bottom of the wells.
Next, the above 2 mM sample solution 1 was diluted with DMEM including 10% FBS to prepare a sample solution 1 in which the concentration of Sample 1 was 20 μM. A total of 1 mL of the culture supernatant was removed from the wells after the 3 h of culture, and 1 mL of the 20 μM sample solution 1 was added to the wells (that is, the concentration of Sample 1 in the culture solution in the wells was made 10 μM and the DMSO concentration was made 0.5%). The cells were then incubated for 20 h at 37° C. under conditions of 5% CO2. After such 20-h incubation, the culture supernatant was removed from the wells, and the cells in the wells were washed twice with 1 mL of PBS. A total of 200 μL of 0.25% trypsin/EDTA solution was then added to the wells, and the cells were incubated for 3 min at 37° C. After this incubation, 400 μL of the above DMEM containing 10% FBS was added to the wells to deactivate the trypsin, the cell suspension in the well was thereafter transferred to a tube, and the cells were collected. A total of 600 μL of PBS was then added to the wells to wash the wells. The PBS in the wells was then transferred to the above tube to collect the cells remaining in the wells in the tube. This tube was centrifuged for 5 min under conditions of 210×g at 4° C. After centrifugation the supernatant was removed, and the precipitate (cell pellet) was suspended (washed) in 1 mL of PBS and centrifuged under the same conditions as described above. This operation was repeated twice, and the supernatant was thereafter removed to obtain cells (a cell pellet) that had been cultured in medium including Sample 1.
The cell penetrating ability of Sample 1 was analyzed by using flow cytometry with respect to the cells (cell pellet) obtained above. An On-chip Flow cytometer (manufactured by On-chip Biotechnologies Co., Ltd.) was used as the flow cytometer.
For this analysis, the cell pellet obtained above was suspended in 50 μL of PBS. A total of 50 μL of 2× sample buffer for flow cytometry was further added to this suspension to prepare a cell suspension for analysis.
Gating was performed using the flow cytometer on the basis of forward scatter (FSC) and side scatter (SSC), a gate was set for the cell population under analysis, and fluorescent intensity was measured for the cell population within this gate. Analysis was performed so that the cell population was composed of about 10,000 cells. Fluorescent intensity was measured using the fluorescence detector FL2 (optimal detection wavelength close to 543 nm) of the flow cytometer, which can detect the fluorescent wavelength of FAM. […]

| Substance | MFI (mean fluorescent intensity) | MFI value compared to Example 2 |
| --- | --- | --- |
| 5(6)-carboxyfluorescein [Example 4, reference compound] | 14.3 | – |
| FAM-VVRSLVKVVRSLVK-CONH2 ({FAM}-VVRSLVKVVRSLVK-NH2) [Example 2] | 715 | – |
| FAM-VVRSLVRVVRSLVR-CONH2 ({FAM}-VVRSLVRVVRSLVR-NH2) [Example 3] | 489 | greatly reduced |
| FAM-VVKSLVKVVKSLVK-CONH2 ({FAM}-VVKSLVKVVKSLVK-NH2) [Example 1] | 1591 | more than twice |
